Experimental data reported in ChEMBL document CHEMBL4340516, “Synthesis and antitumor activity of novel steroidal imidazolium salt derivatives” (Eur J Med Chem, 2019).

Tests used:
Assay type in all cases: functional, cell-based
SMMC-7721 = experiment: Antiproliferative activity against human SMMC7721 cells assessed as reduction in cell viability incubated for 48 hrs by MTS assay; settings: SMMC-7721, 48 h
SW480 = experiment: Antiproliferative activity against human SW480 cells assessed as reduction in cell viability incubated for 48 hrs by MTS assay; settings: SW480, 48 h
HL-60 = experiment: Antiproliferative activity against human HL60 cells assessed as reduction in cell viability incubated for 48 hrs by MTS assay; settings: HL-60, 48 h
MCF7 = experiment: Antiproliferative activity against human MCF7 cells assessed as reduction in cell viability incubated for 48 hrs by MTS assay; settings: MCF7, 48 h
A549 = experiment: Antiproliferative activity against human A549 cells assessed as reduction in cell viability incubated for 48 hrs by MTS assay; settings: A549, 48 h

Row | Structure (SMILES) | IC50 (SMMC-7721) [µM] | IC50 (SW480) [µM] | IC50 (HL-60) [µM] | IC50 (MCF7) [µM] | IC50 (A549) [µM]
1 | C[C@]12CC[C@H]3[C@@H](CC=C4C[C@@H](O)CC[C@@]43C)[C@@H]1CC[C@@H]2n1cc[n+](Cc2ccc3ccccc3c2)c1 | 4.41 | 6.47 | 2.68 | 5.08 | 7.87
2 | C[C@]12CC[C@H](O)CC1=CC[C@@H]1[C@@H]2CC[C@]2(C)C(=O)CC[C@@H]12 [PRASTERONE] | > 20 | > 20 | > 20 | > 20 | > 20
3 | CC(C)CCC[C@@H](C)[C@H]1CC[C@H]2[C@@H]3C[C@H](n4ccnc4)[C@]45C[C@H]4CC[C@]5(C)[C@H]3CC[C@]12C | 2.12 | 16.4 | 2 | > 20 | 11.7
4 | CC(=O)O[C@H]1CC[C@@]2(C)C(=CC[C@H]3[C@@H]4CC[C@H](n5cc[n+](Cc6ccccc6Br)c5)[C@@]4(C)CC[C@@H]32)C1 | 3.83 | 6.87 | 1.48 | 4.84 | 6.52
5 | CC(C)CCC[C@@H](C)[C@H]1CC[C@H]2[C@@H]3CC=C4C[C@H](n5c[n+](Cc6ccccc6Br)c6ccccc65)CC[C@]4(C)[C@H]3CC[C@]12C | 1.56 | 10.6 | 4.47 | 8.97 | 7.31
6 | CC(C)CCC[C@@H](C)[C@H]1CC[C@H]2[C@@H]3C[C@H](n4cc[n+](CC(=O)c5cccc(Br)c5)c4)[C@]45C[C@H]4CC[C@]5(C)[C@H]3CC[C@]12C | 1.22 | 8.23 | 1.42 | 8.7 | 7.84
7 | C[C@@H]1CC[C@@]2(OC1)O[C@H]1C[C@H]3[C@@H]4CC=C5C[C@H](n6cc[n+](CC(=O)c7cccc(Br)c7)c6)CC[C@]5(C)[C@H]4CC[C@]3(C)[C@H]1[C@@H]2C | 1.71 | 1.65 | 1.25 | 1.43 | 1.55
8 | CC(=O)O[C@H]1CC[C@@]2(C)C(=CC[C@H]3[C@@H]4CC[C@H](n5ccnc5)[C@@]4(C)CC[C@@H]32)C1 | > 20 | > 20 | > 20 | > 20 | > 20
9 | COc1ccc(C(=O)C[n+]2ccn([C@H]3CC[C@@]4(C)C(=CC[C@H]5[C@@H]6CC[C@H]([C@H](C)CCCC(C)C)[C@@]6(C)CC[C@@H]54)C3)c2)cc1 | 1.52 | 10.7 | 7.97 | 8.71 | 8.75
10 | CC(C)CCC[C@@H](C)[C@H]1CC[C@H]2[C@@H]3CC=C4C[C@@H](n5cc[n+](CC(=O)c6ccc7ccccc7c6)c5)CC[C@]4(C)[C@H]3CC[C@]12C | 2.1 | 11.3 | 7.26 | > 20 | 9.65
11 | C[C@@H]1CC[C@@]2(OC1)O[C@H]1C[C@H]3[C@@H]4C[C@H](n5cc[n+](CC(=O)c6ccccc6)c5)[C@]56C[C@H]5CC[C@]6(C)[C@H]4CC[C@]3(C)[C@H]1[C@@H]2C | 7.38 | 7.39 | 2.69 | 5.5 | 7.76
12 | CC(C)CCC[C@@H](C)[C@H]1CC[C@H]2[C@@H]3CC=C4C[C@@H](n5ccnc5)CC[C@]4(C)[C@H]3CC[C@]12C | > 20 | > 20 | > 20 | > 20 | > 20
13 | C[C@@H]1CC[C@@]2(OC1)O[C@H]1C[C@H]3[C@@H]4CC=C5C[C@H](n6cnc7ccccc76)CC[C@]5(C)[C@H]4CC[C@]3(C)[C@H]1[C@@H]2C | > 20 | > 20 | > 20 | > 20 | > 20
14 | COc1ccc(C(=O)C[n+]2cn([C@@H]3CC[C@@]4(C)C(=CC[C@H]5[C@@H]6CC[C@H]([C@H](C)CCCC(C)C)[C@@]6(C)CC[C@@H]54)C3)c3ccccc32)cc1 | 1.45 | 10.1 | 4.41 | 9.85 | 7.66
15 | C[C@]12CC[C@H]3[C@@H](CC=C4C[C@@H](O)CC[C@@]43C)[C@@H]1CC[C@@H]2n1cc[n+](CC(=O)c2cccc(Br)c2)c1 | 14.9 | 9.78 | 6.42 | 7.25 | > 20
16 | C[C@]12CC[C@H]3[C@@H](CC=C4C[C@@H](O)CC[C@@]43C)[C@@H]1CC[C@@H]2n1cc[n+](Cc2ccccc2Br)c1 | 7.63 | > 20 | 6.3 | 9.61 | > 20
17 | Cc1cc2c(cc1C)[n+](Cc1ccc3ccccc3c1)cn2[C@@H]1CC[C@@]2(C)C(=CC[C@H]3[C@@H]4C[C@@H]5O[C@]6(CC[C@@H](C)CO6)[C@@H](C)[C@@H]5[C@@]4(C)CC[C@@H]32)C1 | 0.59 | 1.6 | 0.42 | 1.9 | 5.12
18 | C[C@]12CC[C@H]3[C@@H](CC=C4C[C@@H](O)CC[C@@]43C)[C@@H]1CC[C@@H]2n1cc[n+](CC(=O)c2ccccc2)c1 | > 20 | > 20 | > 20 | > 20 | > 20
19 | C[C@@H]1CC[C@@]2(OC1)O[C@H]1C[C@H]3[C@@H]4C[C@H](n5cc[n+](Cc6ccccc6Br)c5)[C@]56C[C@H]5CC[C@]6(C)[C@H]4CC[C@]3(C)[C@H]1[C@@H]2C | 4.58 | 6.33 | 1.24 | 3.86 | 6.6
20 | CC(C)CCC[C@@H](C)[C@H]1CC[C@H]2[C@@H]3C[C@H](n4cc[n+](CC(=O)c5ccc6ccccc6c5)c4)[C@]45C[C@H]4CC[C@]5(C)[C@H]3CC[C@]12C | 1.23 | 6.25 | 2.41 | 8 | 8.53
21 | CC(C)CCC[C@@H](C)[C@H]1CC[C@H]2[C@@H]3C[C@H](n4cc[n+](Cc5ccccc5Br)c4)[C@]45C[C@H]4CC[C@]5(C)[C@H]3CC[C@]12C | 1.16 | 10.9 | 5.53 | 10.8 | 7.65
22 | C[C@@H]1CC[C@@]2(OC1)O[C@H]1C[C@H]3[C@@H]4CC=C5C[C@@H](O)CC[C@]5(C)[C@H]4CC[C@]3(C)[C@H]1[C@@H]2C [DISOGENIN] | > 20 | > 20 | > 20 | > 20 | > 20
23 | C[C@@H]1CC[C@@]2(OC1)O[C@H]1C[C@H]3[C@@H]4CC=C5C[C@@H](n6cc[n+](Cc7ccccc7Br)c6)CC[C@]5(C)[C@H]4CC[C@]3(C)[C@H]1[C@@H]2C | 2.27 | 5.37 | 0.92 | 1.88 | 2.99
24 | CC(=O)O[C@H]1CC[C@@]2(C)C(=CC[C@H]3[C@@H]4CC[C@H](n5cc[n+](CC(=O)c6ccc7ccccc7c6)c5)[C@@]4(C)CC[C@@H]32)C1 | 1.75 | 4.45 | 1.26 | 2.1 | 4.39
